Data: BindingDB's records for doi:10.1016/j.bmcl.2003.08.010 (University of Manchester, 2003)

Test: Inhibitory activity against Escherichia coli thymidine phosphorylase

Compound C=CCNC(=S)NC=C1C(=O)NC(=O)NC1=O [1-Allyl-3-(2,4,6-trioxo-tetrahydro-pyrimidin-5-ylidenemethyl)-thiourea] has an IC50 of 94.8 µM.
